Test results reported in ChEMBL document CHEMBL3832761, “MMV Pathogen Box Bioactivity Data” (2017).
≈ marks a conversion by molar mass, not a printed value.

Experiments:
Type in all cases: functional
[1] = test system: Mycobacterium tuberculosis; assay: AntiMycobacterium tuberculosis activity 1-week GAST/Fe MIC (uM); settings: 168 h
[2] = test system: Mycobacterium tuberculosis; assay: AntiMycobacterium tuberculosis activity 1-week 7H9/cholesterol/BSA/Tx MIC (uM); settings: 168 h
[3] = test system: Mycobacterium tuberculosis; assay: (§1) AntiMycobacterium tuberculosis activity day 10 in 7H9/2.5mM butyrate/pH6/0.1mM nitrite MIC90 (uM); settings: 240 h
[4] = test system: Mycobacterium tuberculosis; assay: AntiMycobacterium tuberculosis activity 2-week 7H9/DPPC/cholesterol/BSA/Tx MIC (uM); settings: 336 h
[5] = test system: Mycobacterium tuberculosis; assay: AntiMycobacterium tuberculosis activity 2-week 7H9/glucose/BSA/Tx MIC (uM); settings: 336 h
HepG2 = assay: HepG2 CC50 (uM) Cytotoxicity; settings: Homo sapiens
[6] = test system: Mycobacterium tuberculosis; assay: AntiMycobacterium tuberculosis activity 1-week 7H9/ADC/Tw MIC (uM); settings: 168 h
[7] = test system: Mycobacterium tuberculosis; assay: AntiMycobacterium tuberculosis activity 2-week 7H9/ADC/Tw MIC (uM); settings: 336 h
[8] = test system: Mycobacterium tuberculosis; assay: AntiMycobacterium tuberculosis activity 2-week Alamar Blue 7H9/cholesterol/BSA/Tx MIC (uM); settings: 336 h
[9] = test system: Mycobacterium tuberculosis; assay: AntiMycobacterium tuberculosis activity 2-week Alamar Blue 7H9/ADC/Tw MIC (uM); settings: 336 h
[10] = test system: Mycobacterium tuberculosis; assay: as §1; settings: 240 h; remark: listed apart in the source
[11] = test system: Mycobacterium tuberculosis; assay: AntiMycobacterium tuberculosis activity 1-week 7H9/DPPC/cholesterol/BSA/Tx MIC (uM); settings: 168 h
[12] = test system: Mycobacterium tuberculosis; assay: AntiMycobacterium tuberculosis activity day 21 MIC99 in 7H9/2.5mM butyrate/pH6/0.1mM nitrite MIC99 (uM); settings: 504 h
[13] = test system: Mycobacterium tuberculosis; assay: AntiMycobacterium tuberculosis activity day 21 in 7H9/2.5mM butyrate/pH6/0.1mM nitrite MIC90 (uM); settings: 504 h
[14] = test system: Mycobacterium tuberculosis; assay: AntiMycobacterium tuberculosis activity 1-week 7H9/glucose/BSA/Tx MIC (uM); settings: 168 h
[15] = test system: Mycobacterium tuberculosis; assay: AntiMycobacterium tuberculosis activity Replicating form: Average MIC90 (uM)
[16] = test system: Mycobacterium tuberculosis; assay: AntiMycobacterium tuberculosis activity Non-Replicating form: Average MIC90 (uM)
[17] = test system: Mycobacterium tuberculosis; assay: AntiMycobacterium tuberculosis activity 2-week GAST/Fe MIC (uM); settings: 336 h

| SMILES | MIC [1] [µM] | MIC [2] [µM] | MIC90 [3] [µM] | MIC [4] [µM] | MIC [5] [µM] | CC50 (HepG2) [µM] | MIC [6] [µM] | MIC [7] [µM] | MIC [8] [µM] | MIC [9] [µM] | MIC90 [10] [µM] | MIC [11] [µM] | MIC [12] [µM] | MIC90 [13] [µM] | MIC [14] [µM] | MIC90 [15] [µM] | MIC90 [16] [µM] | MIC [17] [µM] |
| --- | --- | --- | --- | --- | --- | --- | --- | --- | --- | --- | --- | --- | --- | --- | --- | --- | --- | --- |
| CCc1nc2ccc(Cl)cn2c1C(=O)NCc1ccc(N2CCC(c3ccc(OC(F)(F)F)cc3)CC2)cc1 [TELACEBEC] | < 0.02 | < 0.02 | ≤ 0.04 | 0.02 (≈ 0.0111 µg/mL) | > 50 | > 100 | > 50 | > 50 | 0.02 (≈ 0.0111 µg/mL) | 0.02 (≈ 0.0111 µg/mL) | ≤ 0.04 | < 0.02 | ≤ 0.04 | ≤ 0.04 | 0.1 (≈ 0.0557 µg/mL) | 0.01 (≈ 0.00557 µg/mL) | 0.01 (≈ 0.00557 µg/mL) | < 0.02 |
| O=C(Nc1nc(-c2ccccn2)cs1)c1cncn1-c1ccccc1 | 1.56 (≈ 0.542 µg/mL) | 9.4 (≈ 3.27 µg/mL) | 6.25 (≈ 2.17 µg/mL) | 25 (≈ 8.69 µg/mL) | 25 (≈ 8.69 µg/mL) | 3.8 | 19 (≈ 6.6 µg/mL) | 25 (≈ 8.69 µg/mL) | 12.5 (≈ 4.34 µg/mL) | 19 (≈ 6.6 µg/mL) | > 50 | 9.4 (≈ 3.27 µg/mL) | > 50 | 12.5 (≈ 4.34 µg/mL) | 19 (≈ 6.6 µg/mL) | 82.7 (≈ 28.7 µg/mL) | 32.5 (≈ 11.3 µg/mL) | 3.13 (≈ 1.09 µg/mL) |
| Cc1nnc(NCc2cccc(Cl)c2)c2ccccc12 | 0.2 (≈ 0.0568 µg/mL) | 19 (≈ 5.39 µg/mL) | 25 (≈ 7.09 µg/mL) | > 50 | > 50 | 76 | 50 (≈ 14.2 µg/mL) | > 50 | > 50 | 1.56 (≈ 0.443 µg/mL) | > 50 | ≥ 50 | > 50 | > 50 | > 50 | > 100 | 4.61 (≈ 1.31 µg/mL) | 0.6 (≈ 0.17 µg/mL) |
| COc1ccc(C2(C(=O)Nc3ccc(Br)cc3)CCCC2)cc1 | 19 (≈ 7.11 µg/mL) | 9.4 (≈ 3.52 µg/mL) | 50 (≈ 18.7 µg/mL) | 9.4 (≈ 3.52 µg/mL) | 12.5 (≈ 4.68 µg/mL) | > 100 | 19 (≈ 7.11 µg/mL) | 12.5 (≈ 4.68 µg/mL) | 12.5 (≈ 4.68 µg/mL) | 12.5 (≈ 4.68 µg/mL) | > 50 | 12.5 (≈ 4.68 µg/mL) | 50 (≈ 18.7 µg/mL) | 50 (≈ 18.7 µg/mL) | 12.5 (≈ 4.68 µg/mL) | 26.5 (≈ 9.93 µg/mL) | 46.5 (≈ 17.4 µg/mL) | 19 (≈ 7.11 µg/mL) |
| Nc1c2c(nc3sc4c(c13)CCCC4)CCCC2 | 1.56 (≈ 0.403 µg/mL) | 12.5 (≈ 3.23 µg/mL) | 50 (≈ 12.9 µg/mL) | 25 (≈ 6.46 µg/mL) | 25 (≈ 6.46 µg/mL) | 34.9 | 25 (≈ 6.46 µg/mL) | 37 (≈ 9.56 µg/mL) | 25 (≈ 6.46 µg/mL) | 12.5 (≈ 3.23 µg/mL) | > 50 | 12.5 (≈ 3.23 µg/mL) | > 50 | 50 (≈ 12.9 µg/mL) | 19 (≈ 4.91 µg/mL) | 52 (≈ 13.4 µg/mL) | 94.6 (≈ 24.4 µg/mL) | 2.3 (≈ 0.594 µg/mL) |
| CC(C)(C)c1cnc(NC(=O)c2ccccc2O)s1 | 19 (≈ 5.25 µg/mL) | > 50 | 50 (≈ 13.8 µg/mL) | > 50 | > 50 | 47.6 | > 50 | > 50 | > 50 | > 50 | > 50 | > 50 | > 50 | 50 (≈ 13.8 µg/mL) | > 50 | 81.9 (≈ 22.6 µg/mL) | 21 (≈ 5.81 µg/mL) | 25 (≈ 6.91 µg/mL) |
| Cc1cccc(Cn2ccc(NC(=O)c3ccc4c(c3)OCO4)n2)c1 | 0.2 (≈ 0.0671 µg/mL) | 9.4 (≈ 3.15 µg/mL) | 25 (≈ 8.38 µg/mL) | 19 (≈ 6.37 µg/mL) | 25 (≈ 8.38 µg/mL) | > 100 | 9.4 (≈ 3.15 µg/mL) | 25 (≈ 8.38 µg/mL) | 9.4 (≈ 3.15 µg/mL) | 12.5 (≈ 4.19 µg/mL) | 50 (≈ 16.8 µg/mL) | 9.4 (≈ 3.15 µg/mL) | 50 (≈ 16.8 µg/mL) | 50 (≈ 16.8 µg/mL) | 12.5 (≈ 4.19 µg/mL) | 22.6 (≈ 7.58 µg/mL) | 10.4 (≈ 3.48 µg/mL) | 0.3 (≈ 0.101 µg/mL) |
| CCc1ccc([C@@H]2C[C@H](C(F)(F)F)n3ncc(C(=O)NCc4ccc(OC)cc4)c3N2)cc1 | 0.1 (≈ 0.0458 µg/mL) | 0.2 (≈ 0.0917 µg/mL) | 6.25 (≈ 2.87 µg/mL) | 0.3 (≈ 0.138 µg/mL) | 0.78 (≈ 0.358 µg/mL) | 50.6 | 0.78 (≈ 0.358 µg/mL) | 1.56 (≈ 0.715 µg/mL) | 0.39 (≈ 0.179 µg/mL) | 1.56 (≈ 0.715 µg/mL) | > 50 | 0.2 (≈ 0.0917 µg/mL) | > 50 | 12.5 (≈ 5.73 µg/mL) | 0.6 (≈ 0.275 µg/mL) | 0.24 (≈ 0.11 µg/mL) | 1.13 (≈ 0.518 µg/mL) | 0.1 (≈ 0.0458 µg/mL) |
| CN1CCN(CCCOc2ncc(Nc3ncc(-c4ccc(C(F)(F)F)c(F)c4)nc3C(N)=O)cn2)CC1 | 1.56 (≈ 0.834 µg/mL) | 0.39 (≈ 0.208 µg/mL) | 0.78 (≈ 0.417 µg/mL) | 0.6 (≈ 0.321 µg/mL) | 1.56 (≈ 0.834 µg/mL) | 3.9 | 1.2 (≈ 0.641 µg/mL) | 1.56 (≈ 0.834 µg/mL) | 0.6 (≈ 0.321 µg/mL) | 1.56 (≈ 0.834 µg/mL) | 12.5 (≈ 6.68 µg/mL) | 0.2 (≈ 0.107 µg/mL) | 12.5 (≈ 6.68 µg/mL) | 1.5 (≈ 0.802 µg/mL) | 1.2 (≈ 0.641 µg/mL) | 3.46 (≈ 1.85 µg/mL) | 3.1 (≈ 1.66 µg/mL) | 1.56 (≈ 0.834 µg/mL) |
